# How the values were obtained:
# [1] = test system: keratinocyte outgrowth of skin explants; experiment: ex vivo wound healing assay: organotypic culture of newborn mouse skin explants, keratinocyte outgrowth; type: cell-based; details: 0.1 mM in culture medium, 7 days culture
# ENaC = experiment: real-time PCR analysis of ENaC subunit gene expression in skin of K5-MR neonates; type: in vivo, mouse; details: K5-MR pups; pregnant mice were given canrenoate
# From the text: We took advantage of the K5-MR mouse model to question whether expression of ENaC and its main regulators may be altered by MR overexpression. Skin samples from control and K5-MR neonates were processed for real-time PCR analysis of gene expression.
structure (smiles),measurement,setting,value
C[C@]12CCC(=O)C=C1C=C[C@@H]1[C@@H]2CC[C@@]2(C)[C@H]1CC[C@@]2(O)CCC(=O)O [potassium canrenoate],impaired keratinocyte outgrowth of the explants,[1]; skin explants from K5-MR pups (MR overexpression in basal keratinocytes),partially but significantly improved
same,keratinocyte outgrowth of the explants,[1]; skin explants from control pups,no effect
same,enhanced skin mRNA expression of all 3 subunits of ENaC (abnormal pattern of expression),ENaC,blunted

# From US9682089B2, “Methods and compositions for stimulating reepithelialisation during wound healing” (Institut National de la Sante et de la Recherche Medicale …, priority 2010, dated 2017)
